Patent US20120301551A1, “COMPOUNDS AND COMPOSITIONS FOR TREATING NEURONAL DEATH OR NEUROLOGICAL DYSFUNCTION” (Neurotech Pharmaceuticals Co., Ltd., priority 2005, published 2012)
“And” between values parts separate entries of the source, which are not always exact repeats. Equal values may be shown once.

Experiments:
G93A transgenic mice = format: in vivo, mouse
Experimental: Animals were daily fed with 2-hydroxy TTBA (30 mg/kg/d), 0.2% lithium carbonate (200 mg/kg/d, Li), or a combination of both (2-hydroxy TTBA+Li) from 8 weeks of age in diet.
Animals were daily fed with 2-hydroxy TTBA (30 mg/kg/d), 0.2% lithium carbonate (Li), or a combination of both (2-hydroxy TTBA+Li) from 8 weeks of age in diet.
C & D: (C) Bright-field photomicrographs of cresyl violet-stained ventral horn sections from the wild type (a), or G93AA transgenic mice treated with vehicle (b), or with a combination of 2-hydroxy TTBA+Li (c) at 16 weeks of age.

[1] = tested on: Fas, FADD, cleaved caspase-8 and caspase-3; assay: Fas pathway in lumbar spinal cord of G93A transgenic mice (Western blot); details: at 12 weeks of age; 2-hydroxy-TTBA 30 mg/kg/d, Li^+ 200 mg/kg/d in the diet
Experimental: G93A transgenic mice received oral administration of 2-hydroxy-TTBA (30 mg/kg/d) in the diet from 8 weeks of age.

[2] = tested on: APPswe/PS1deltaE9 double transgenic mice; assay: amyloid plaque burden in APPswe/PS1deltaE9 double transgenic mice (Thioflavin-S); format: in vivo, mouse
Experimental: The treatment with 25 mg/kg/day of chemical 01 for 7 months (from 3.5 to 10.5 month-old APP/PS1) caused a significant 53% reduction in amyloid plaque burden compared to APP/PS1 dementia mouse fed with general chow only.
10.5 month-old APPswe/PS1deltaE9 double transgenic mice were fed chow alone (saline only), or containing 25 mg/kg/day of chemical—01, for 7.5 months before being sacrificed (3˜10.5 month). 18-20 μm brain sections stained 1% Thioflavin-S for 5 min and observed under fluorescence microscope system.

IL-6 = assay: LPS-induced IL-6 production in BV2 cells; format: cell-based
Experimental: Suppressing effects of chemical 01 in BV2 cell lines on production of IL-1β, IL-6 or TNF-α were evaluated. BV2 cells were exposed to 1 ug/ml LPS (inflammation-inducing material) with inclusion of chemical 01 at indicated doses. After 4 hours, supernatant were collected and concentrations of TNF-a were evaluated. In addition, BV2 cells were treated by the same method, and 24 hours later, supernatant were collected and concentrations of IL-1β and IL-6 were evaluated (mean±SEM, n=3). BV2 cells treated with LPS only were used as control.

[3] = hydroxyl radical scavenging in test tube; format: biochemical
Experimental: In addition, scavenging effects of superoxide and hydroxyl radical in test tube were evaluated. Hydroxyl radical scavenging activities of 0.1 uM, 1 uM and 10 uM of chemical 01 were 13.35%, 33.33% and 71.72%, respectively.

[4] = tested on: APPswe/PS1deltaE9 double transgenic mice; assay: elevated plus maze in APPswe/PS1deltaE9 double transgenic mice; format: in vivo, mouse; details: 25 mg/kg/day for 14.5 months (3~17.5 months)
Experimental: After administration of 14.5 months, Elevated plus maze test was performed to evaluate the behavior improvement like example 10-3-2 (mean±SEM, n=3-5).
17.5 month-old APPswe/PS1deltaE9 double transgenic mice were fed chow alone (saline only), or containing 25 mg/kg/day of chemical—01, for […] (3˜17.5 month).
The anxiety function was analyzed by elevated plus maze test. The time spent in the open arm was recorded in the elevated plus maze.

[5] = DPPH free radical scavenging; format: biochemical
Description: Free radical scavenging activity of chemical 01 was directly evaluated with 1,1-diphenyl-2-picrylhydrazil (DPPH, a stable free radical).

APP/PS1 mouse = assay: plasma Aβ40/Aβ42 levels in APP/PS1 mouse; format: in vivo
Experimental: Also, treatment with 25 mg/kg/day of chemical 01 for 5 days in 11.5 month-old APP/PS1 mouse caused a significant 44% reduction in SDS-insoluble Aβ42 levels in plasma and a significant 38% reduction in SDS-insoluble Aβ40 levels in plasma compared to APP/PS1 mouse fed with general chow only.
In further, treatment with 25 mg/kg/d of chemical—01 for 7 months (from 3.5 to 10.5 months) caused a significant 42% reduction in SDS-insoluble Aβ40 levels (data not shown). Also, treatment with 25 mg/kg/d of chemical—01 for 5 days in 11.5 months caused a significant 40% reduction in SDS-insoluble Aβ40/Aβ42 levels in plasma (data not shown).

NO = assay: LPS-induced NO in mesencephalic cultures; format: cell-based; details: 5 ng/ml LPS; 0-100 uM; 24 hours
Experimental: Mesencephalic nerve cell cultures were pre-treated with 5 ng/ml of LPS for 30 minutes to make a cull culture model of Parkinson's disease, and then 0-100 uM of chemical 01 were added. The level of NO was evaluated 24 hours after administration of chemical 01, and the level of TNF-a was evaluated 3 hours after administration of chemical 01 (mean±SEM, n=7-12 culture well/each group).

G93A mouse = assay: oxidative toxicity in G93A mouse (nitrotyrosine immunostaining); format: in vivo; details: G93A mice at ages of 10 weeks
Experimental: Reactive oxygen species (ROS) produced in progress of ALS disease was evaluated in G93A mouse.

[6] = tested on: APPswe/PS1deltaE9 double transgenic mice; assay: brain Aβ40/Aβ42 levels in APPswe/PS1deltaE9 double transgenic mice (ELISA); format: in vivo, mouse
Experimental: SDS-soluble/insoluble Aβ40 or Aβ42 levels were analyzed by colorimetric sandwich ELISA kit (BIOSOURCE, Camarillo, Calif.).

[7] = tested on: mesencephalic nerve cell cultures; assay: dopaminergic nerve cell death by LPS in mesencephalic cultures ([3H]DA uptake); format: cell-based; details: 5 ng/ml LPS; 0-100 uM; 7 days
Experimental: Mesencephalic nerve cell cultures were pre-treated with 5 ng/ml of LPS for 30 minutes to make a cull culture model of Parkinson's disease, and then 0-100 uM of chemical 01 were added. 7 days after administration, [^3H]DA uptake was evaluated to quantify the death of the nerve cell (mean±SEM, n=4 culture well/each group).

[8] = 2-hydroxy TTBA 30 mg/kg/d, 0.2% lithium carbonate, or both, in diet from 8 weeks of age, n=13
[9] = 25 mg/kg/day for 5 days in 11.5 month-old APP/PS1 mouse

O=C(O)c1cc(NCc2c(F)c(F)c(C(F)(F)F)c(F)c2F)ccc1O [2-Hydroxy-TTBA, 2-hydroxy-5-(2,3,5,6-tetrafluoro-4-trifluoromethyl-benzylamino)-benzoic acid]
Mortality (survival) (G93A transgenic mice; [8]): 143.8 days and 143.8^a ± 2.83 days
Onset from PaGE (G93A transgenic mice; [8]): 114.1 days and 114.1^a ± 2.02 days
Onset from Rotarod (G93A transgenic mice; [8]): 112.3 days and 112.3^a ± 2.89 days
weight loss, % of the wild type (G93A transgenic mice; G93A mice at 18 weeks of age, oral administration in diet): 41%
extension reflex, motor strength, and coordination (G93A transgenic mice; G93A mice, drug in diet): improved
degeneration (loss) of ventral motor neurons in lumbar spinal cord (G93A transgenic mice; at 16 weeks of age): 57%
motor performance versus vehicle-treated control (G93A transgenic mice; from 11 weeks to 18 weeks, in the diet): better motor performance
levels of Fas, FADD, cleaved caspase-8 and caspase-3 (Fas pathway) in lumbar spinal cord [1]: slightly attenuated

O=C(O)c1cc(NCCc2ccc(C(F)(F)F)cc2)ccc1O [chemical 01, 2-Hydroxy-5-[2-(4-trifluoromethyl-phenyl)-ethylamino]-benzoic acid]
reduction in amyloid plaque burden ([2]; 25 mg/kg/day for 7 months (from 3.5 to 10.5 month-old)): 53%
reduction in plaque burden ([2]; 25 mg/kg/day for 7.5 months (3~10.5 month)): 53.4%
reduction in amyloid plaque burden ([2]; 25 mg/kg/day, from 8.5 to 12.5 month-old (4 months)): 49.3%
decrease of IL-6 released into media (IL-6; 100 uM, 1 ug/ml LPS, 24 hours): ~70%
IL-6 decrease, in words (IL-6; 1~100 uM): dose-dependent manner
IC50 [3]: 0.97 µM
hydroxyl radical scavenging activity ([3]; 0.1 uM): 13.35%
hydroxyl radical scavenging activity ([3]; 1 uM): 33.33%
hydroxyl radical scavenging activity ([3]; 10 uM): 71.72%
time spent in the open arm [4]: decreased the time
time spent in the open arm ([4]; listed as chemical—01): spent less time
IC50 [5]: 9.55 µM
reduction in SDS-insoluble Aβ40/Aβ42 levels in plasma (APP/PS1 mouse; 25 mg/kg/d for 5 days in 11.5 months): 40%
reduction in SDS-insoluble Aβ40 levels in plasma (APP/PS1 mouse; [9]): 38%
reduction in SDS-insoluble Aβ42 levels in plasma (APP/PS1 mouse; [9]): 44%
increase of NO caused by LPS (NO): dose-dependent manner
fluorescence intensity of nitrotyrosine (oxidative toxicity) in motor neurons (G93A mouse): decreased
SDS-soluble/insoluble Aβ40 or Aβ42 levels, in words ([6]; 25 mg/kg/d chemical 01 or 62.5 mg/kg/day ibuprofen for 14.5 months): reduced
reduction in SDS-insoluble Aβ40 levels ([6]; 25 mg/kg/day for 4 months (from 8.5 to 12.5 month-old)): 27%
reduction in SDS-insoluble Aβ40 levels ([6]; 25 mg/kg/day for 7 months (from 3.5 to 10.5 months)): 42%
dopaminergic nerve cell death caused by LPS [7]: dose-dependent manner
